This is an account of results in paper PMC7017153, “Assembly of a G-Quadruplex Repair Complex by the FANCJ DNA Helicase and the REV1 Polymerase” (Genes, 2019).

Assay [1] concerns (TTAGGG)4 human telomeric G4 DNA. As to the kind of experiment: Fluorescence spectroscopy, FANCJ AKKQ binding to (TTAGGG)4. As to conditions: tryptophan fluorescence quenching, peptide 5 µM, excitation 280 nm, 300-450 nm; Buffer H (20 mM HEPES pH 7.5, 150 mM KCl, 5 mM TCEP, 5% (v/v) glycerol), 25 °C; 1:1 model; average and 95% confidence interval, n = 3. As to the method:
(§1) Equilibrium binding experiments were performed on a Cary Eclipse Fluorescence Spectrophotometer (Agilent Technologies, Santa Clara, CA, USA). Samples were maintained at 25 °C with a PCB 1500 water peltier system (Agilent). FANCJ peptide (5 µM) was placed in a microcuvette. Fluorescence spectra were collected from 300 nm to 450 nm (λexcitation = 280 nm) with slit widths set to 5 nm. A scan of Buffer H was used as a baseline. DNA substrate was titrated into the cuvette, and each mixture was equilibrated for 3 min prior to data collection. The extent of fluorescence quenching observed (ΔFobs) was calculated using the following equation, where F0 was the total fluorescence signal from the FANCJ peptide alone, and Fi was the total fluorescence intensity upon the ith addition of DNA:(1) ΔFobs=F0−Fi/F0
(§2) Binding isotherms were generated by plotting ΔFobs versus the total DNA concentration after correcting for sample dilution. The resulting curves were fit to a 1:1 interaction model using Scientist 3.0 software (Micromath, St. Louis, MO, USA) based on the following formulas, where A was the amplitude of fluorescence quenching and K was the equilibrium association constant. […] Fluorescence titrations were performed in triplicate. The reported values were determined from the average and 95% confidence interval of the three independent data-sets. […]

The test system of assay [2] is (TTAGGG)4 8oxo1. Kind of assay: Fluorescence spectroscopy, FANCJ AKKQ binding to (TTAGGG)4 8oxo1. As to conditions: tryptophan fluorescence quenching, peptide 5 µM, excitation 280 nm; Buffer H (pH 7.5, 150 mM KCl), 25 °C; 1:1 model; 8oxoG at first guanine; average and 95% confidence interval, n = 3. Set-up: species or system human. The method, then: as §1, §2
Assay [3] deals with (TTAGGG)4 8oxo5. As to the kind of experiment: Fluorescence spectroscopy, FANCJ AKKQ binding to (TTAGGG)4 8oxo5. Details: species or system human. The conditions noted are these: tryptophan fluorescence quenching, peptide 5 µM, excitation 280 nm; Buffer H (pH 7.5, 150 mM KCl), 25 °C; 1:1 model; 8oxoG at fifth guanine; average and 95% confidence interval, n = 3. As to the method: as §1, §2

Assay [4] concerns (GGGT)4. As to the kind of experiment: Fluorescence spectroscopy, FANCJ AKKQ binding to (GGGT)4. The conditions noted are these: tryptophan fluorescence quenching, peptide 5 µM, excitation 280 nm; Buffer H (pH 7.5, 150 mM KCl), 25 °C; 1:1 model; average and 95% confidence interval, n = 3. The method, then: as §1, §2
Assay [5] relates to (GGGT)4 8oxo1. Kind of assay: Fluorescence spectroscopy, FANCJ AKKQ binding to (GGGT)4 8oxo1. As to the method:
as §1, §2

The subject of assay [6] is (GGGT)4 8oxo5. Kind of assay: Fluorescence spectroscopy, FANCJ AKKQ binding to (GGGT)4 8oxo5. The conditions noted are these: tryptophan fluorescence quenching, peptide 5 µM, excitation 280 nm; Buffer H (pH 7.5, 150 mM KCl), 25 °C; 1:1 model; 8oxoG at fifth guanine; average and 95% confidence interval, n = 3. As to the method:
as §1, §2

In assay [7] the test system is bioPEG12-(TTAGGG)4. As to the kind of experiment: Biolayer interferometry (BLI), AKKQ binding to bioPEG12-(TTAGGG)4. Set-up: species or system human. As to the method: (§3) BLI assays were performed on a BLItz instrument (Pall Fortébio, Fremont, CA, USA). Streptavidin-coated biosensors were purchased from Pall Fortébio (Lot 1906281). Biosensors were hydrated in Buffer H for 10 min, and the baseline optical interference was recorded. A total of 150 nM of biotinylated G4 DNA or FANCJ PIP peptide was loaded onto the sensors over 2 min, after which they were washed with Buffer H. Binding reactions were initiated by placing the biosensors in analyte solutions at the indicated concentrations. After their interactions had reached an equilibrium, the sensors were returned to buffer to monitor dissociation of the complexes. Experiments were repeated in triplicate. BLI binding isotherms were generated by plotting the plateau values of the association phase versus total analyte concentration. These curves were fit to a 1:1 interaction model, as described above. The parameters reported were obtained from the average and 95% confidence interval of the three data sets.
(§4) We next validated our fluorescence spectroscopy results by biolayer interferometry (BLI). This technique measures the optical thickness of a biosensor surface, which can be used to examine the association and dissociation reactions of macromolecules. […] The optical interference pattern of the sensor alone was measured in Buffer H as an initial baseline (phase 1). […]

In assay [8] the test system is bioPEG12-(TTAGGG)4-8oxo1. Kind of assay: Biolayer interferometry (BLI), AKKQ binding to bioPEG12-(TTAGGG)4-8oxo1. Details: species or system human. The conditions noted are these: 150 nM biotinylated G4 DNA loaded on streptavidin biosensor, peptide 32-0.5 µM, Buffer H (pH 7.5, 150 mM KCl), 25 °C, plateau Δλ, 1:1 model, average and 95% confidence interval, n = 3. As to the method:
as §3, §4
In general terms: Biolayer interferometry detects binding as a change in optical thickness at a sensor tip.

The subject of assay [9] is bioPEG12-(TTAGGG)4-8oxo5. Kind of assay: Biolayer interferometry (BLI), AKKQ binding to bioPEG12-(TTAGGG)4-8oxo5. Set-up: species or system human. The conditions noted are these: 150 nM biotinylated G4 DNA loaded on streptavidin biosensor, peptide 32-0.5 µM, Buffer H (pH 7.5, 150 mM KCl), 25 °C, plateau Δλ, 1:1 model, average and 95% confidence interval, n = 3. As to the method: as §3, §4

For the sequence SPEKTTLAAKLSAKKQASIW [FANCJ AKKQ], the “K (equilibrium association constant)” value in assay [1] is 1.6 ± 0.7 × 10^6 M^−1; in [4], 2.7 ± 0.4 × 10^5 M^−1. Moreover, the “K8oxo1 (equilibrium association constant)” value is recorded as 1.3 ± 0.4 × 10^6 M^−1 in [2]; 7.7 ± 0.7 × 10^5 M^−1 in [5] (tryptophan fluorescence quenching, peptide 5 µM, excitation 280 nm, Buffer H (pH 7.5, 150 mM KCl), 25 °C, 1:1 model, 8oxoG at first guanine, average and 95% confidence interval, n = 3). In addition, the figures for the “K8oxo5 (equilibrium association constant)” value in assay [3] and in assay [6] were 1.4 ± 0.5 × 10^6 M^−1 and 4.4 ± 0.6 × 10^5 M^−1, respectively. Besides, the “Increase of equilibrium constant by oxidative damage” value in assay [5] ((GGGT)4 8oxo1 and 8oxo5 relative to (GGGT)4, fluorescence) is 1.5-3 fold. Also, the “K (equilibrium constant)” value in assay [7] (BLI, 150 nM biotinylated G4 DNA loaded on streptavidin biosensor, peptide 64-0.5 µM, Buffer H (pH 7.5, 150 mM KCl), 25 °C, plateau Δλ, 1:1 model, average and 95% confidence interval, n = 3) is 9.4 ± 1.1 × 10^4 M^−1. Besides, the “BLI binding constants compared to the fluorescence measurements” value in [7] (human telomeric G4, native, 8oxo1 and 8oxo5) was “about one order of magnitude weaker compared to the fluorescence measurements”. The “K8oxo1 (equilibrium constant)” value in assay [8] is 2.3 ± 0.8 × 10^5 M^−1. The “K8oxo5 (equilibrium constant)” value in assay [9] is 1.8 ± 0.2 × 10^5 M^−1.
